According to ChEMBL document CHEMBL1201862, “PubChem BioAssay data set” (2004):
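96-well plates; 48 h exposure; 5 concentrations. Endpoints by linear interpolation between flanking doses. Not reached: highest tested concentration assigned. At the GI50, growth is halved.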 Active and inactive are the calls of the source. No stated cut-off is given here; in the data, active = GI50 up to about 1.1 µM and inactive = higher.

Legend:
Assay in all cases: inhibition of tumour cell growth, NCI panel, 48 h
DMS-114 = test system: DMS-114
SN12C = test system: SN12C
HCT-116 = test system: HCT-116
TK-10 = test system: TK-10
M14 = test system: M14
KM12 = test system: KM12
OVCAR-3 = test system: OVCAR-3
SF-539 = test system: SF-539
MOLT-4 = test system: MOLT-4
HCT-15 = test system: HCT-15
OVCAR-5 = test system: OVCAR-5
COLO 205 = test system: COLO 205
M19-MEL = test system: M19-MEL
786-0 = test system: 786-0
UO-31 = test system: UO-31
SR = test system: SR
SNB-78 = test system: SNB-78
CCRF-CEM = test system: CCRF-CEM

SMILES | GI50 (DMS-114) | GI50 (SN12C) | GI50 (HCT-116) | GI50 (TK-10) | GI50 (M14) | GI50 (KM12) | GI50 (OVCAR-3) | GI50 (SF-539) | GI50 (MOLT-4) | GI50 (HCT-15) [µM] | GI50 (OVCAR-5) | GI50 (COLO 205) | GI50 (M19-MEL) | GI50 (786-0) | GI50 (UO-31) | GI50 (SR) | GI50 (SNB-78) | GI50 (CCRF-CEM)
N#CCCN(c1ccc(/C=C2\N=C(c3ccc(Cl)cc3)OC2=O)cc1)S(=O)(=O)c1ccccc1 | > 100 µM (inactive) | > 100 µM (inactive) | > 100 µM (inactive) | > 100 µM (inactive) | > 100 µM (inactive) | > 100 µM (inactive) | > 100 µM (inactive) | > 100 µM (inactive) | > 100 µM (inactive) | > 100 | > 100 µM (inactive) | > 100 µM (inactive) | > 100 µM (inactive) | > 100 µM (inactive) | > 100 µM (inactive) | > 100 µM (inactive) | – | –
c1ccc2c(c1)Cc1c(Cc3csc4ccccc34)ccc3cccc-2c13 | > 100 µM (inactive) | > 100 µM (inactive) | > 100 µM (inactive) | > 10 µM (inactive) | > 100 µM (inactive) | > 100 µM (inactive) | > 100 µM (inactive) | > 100 µM (inactive) | > 100 µM (inactive) | > 100 | > 100 µM (inactive) | > 100 µM (inactive) | > 100 µM (inactive) | > 100 µM (inactive) | > 100 µM (inactive) | – | 94.4 µM (inactive) | > 100 µM (inactive)
O=C(CC1(O)C(=O)Nc2ccccc21)c1ccccc1Cl (stereo unspecified) | > 100 µM (inactive) | > 100 µM (inactive) | > 100 µM (inactive) | > 100 µM (inactive) | > 100 µM (inactive) | – | > 100 µM (inactive) | > 100 µM (inactive) | > 100 µM (inactive) | > 100 | > 100 µM (inactive) | > 100 µM (inactive) | > 100 µM (inactive) | > 100 µM (inactive) | 64.9 µM (inactive) | – | > 100 µM (inactive) | –
CN(C)CCn1c2c3ccccc3ccc2c2oc(=O)c3ccccc3c21 | – | – | 4.2 µM (inactive) | 12.6 µM (inactive) | 6.12 µM (inactive) | 6.71 µM (inactive) | 4.4 µM (inactive) | 2.5 µM (inactive) | 2.62 µM (inactive) | 8.34 | 19.5 µM (inactive) | 4.17 µM (inactive) | 5.46 µM (inactive) | 2.36 µM (inactive) | 1.61 µM (inactive) | 2.78 µM (inactive) | 19.7 µM (inactive) | 4.26 µM (inactive)
Cc1ccccc1C1CC(c2ccccc2)=NO1 (stereo unspecified) | > 100 µM (inactive) | > 100 µM (inactive) | > 100 µM (inactive) | > 100 µM (inactive) | > 100 µM (inactive) | > 100 µM (inactive) | > 100 µM (inactive) | > 100 µM (inactive) | > 100 µM (inactive) | > 100 | > 100 µM (inactive) | > 100 µM (inactive) | – | > 100 µM (inactive) | > 100 µM (inactive) | > 100 µM (inactive) | > 100 µM (inactive) | > 100 µM (inactive)
CCc1cccc(C)c1NC(=O)CCc1n[nH]c(=S)o1 | – | > 100 µM (inactive) | 16.1 µM (inactive) | > 100 µM (inactive) | > 100 µM (inactive) | > 100 µM (inactive) | > 100 µM (inactive) | > 100 µM (inactive) | > 100 µM (inactive) | 55.1 | > 100 µM (inactive) | 44.6 µM (inactive) | > 100 µM (inactive) | > 100 µM (inactive) | > 100 µM (inactive) | – | > 100 µM (inactive) | > 100 µM (inactive)
O=C1CCC(=O)N2CCCCN12 | > 100 µM (inactive) | > 100 µM (inactive) | > 100 µM (inactive) | > 100 µM (inactive) | > 100 µM (inactive) | > 100 µM (inactive) | > 100 µM (inactive) | > 100 µM (inactive) | > 100 µM (inactive) | > 100 | > 100 µM (inactive) | > 100 µM (inactive) | > 100 µM (inactive) | > 100 µM (inactive) | > 100 µM (inactive) | – | > 100 µM (inactive) | > 100 µM (inactive)
CN(CCCN1C(=O)c2cccc3cc([N+](=O)[O-])cc(c23)C1=O)CCN(C)CCCN1C(=O)c2cccc3cc([N+](=O)[O-])cc(c23)C1=O | 33.6 µM (inactive) | > 39.3 µM (inactive) | 11.7 µM (inactive) | > 39.3 µM (inactive) | > 39.3 µM (inactive) | 24.7 µM (inactive) | > 39.3 µM (inactive) | 29.7 µM (inactive) | 1.51 µM (inactive) | 32.6 | > 39.3 µM (inactive) | 23.4 µM (inactive) | 18.2 µM (inactive) | 13.6 µM (inactive) | – | – | > 39.3 µM (inactive) | 6.34 µM (inactive)
O=C(Cc1nc2ccccc2s1)C(=O)Nc1ccc(Cl)cc1 | > 100 µM (inactive) | > 100 µM (inactive) | > 100 µM (inactive) | > 100 µM (inactive) | > 100 µM (inactive) | > 100 µM (inactive) | > 100 µM (inactive) | > 100 µM (inactive) | > 100 µM (inactive) | > 100 | > 100 µM (inactive) | > 100 µM (inactive) | > 100 µM (inactive) | > 100 µM (inactive) | > 100 µM (inactive) | – | > 100 µM (inactive) | –
